From patent US7091351B2, “Vanadium compounds for treating cancer” (Parker Hughes Institute, priority 1998, dated 2006)

Assays:
Assay type in all cases: cell-based, human
U373 glioblastoma cells [1] = assay: MTT cytotoxicity assay of vanadocenes, U373 cells; details: 24 h
Protocol: Human testicular cancer cell lines, Tera-2 (embryonal carcinoma) and Ntera-2 (pluripotent embryonal carcinoma) were obtained from the American Type Culture Collection (ATCC) (Rockeville, Md.) and propagated in T-25, T-75, or T-150 cm^2 tissue culture flasks (Corning Corp., Corning, N.Y.) in McCoy's 5A medium and Dulbecco's modified Eagle's medium respectively. Both media were supplemented with 10% fetal calf serum (FCS), 4 mM glutamine, 100 U/ml penicillin G, and […] streptomycin sulfate. All tissue culture reagents were obtained from Life Technologies Inc. (GIBCO-BRL), Gaithersburg, Md. Cell lines were cultivated for a minimum of two passages after thawing prior to experimentation. Other cell lines that were used in this study were the human B-lineage acute lymphoblastic leukemia (ALL) cell line NALM-6. Uckun, F. M., Evans, W. E., Forsyth, C. J., Waddick, K. G., Tuel-Ahlgren, L., Chelstrom, L. M., Burkhardt, A., Bolen, J., Myers, D. E. Biotherapy of B-cell precursor leukemia by targeting genistein to CD19-associated tyrosine kinase. Science (Washington DC) 267:886–91, 1995; T-lineage ALL cell line MOLT-3, Waurzyniak, B., Shneider, E. A., Tumer, N., Yanishevski, Y., Gunther, R., Chelstrom, L., Wendorf, H., Myers, D. E., Irvin, J. D., Messinger, Y., Ek, O., Zeren, T., Chandan-Langlie, M., Evans, W. E., Uckun, F. M. In vivo toxicity, pharmacokinetics, and antileukemic activity of TXU (anti-CD7)-pokeweed antiviral protein immunotoxin. Clinical Cancer Research 3:881–890, 1997; AML cell line HL-60, Perentesis, J. P., Waddick, K. G., Bendel, A. E., Shao, Y., Warman, B. E., Chandan-Langlie, M., and Uckun, F. M. Induction of apoptosis in multi-drug resistant andradiation-resistant acute myeloid leukemia cells by a recombinant fusion toxin directed against the granulocyte macrophage colony stimulating factor receptor. Clin. Cancer Res. 3:347–355, 1997; breast cancer cell lines MDA-MB-231 and BT-20, Uckun, F. M., Narla, R. K., Jun, X., Zeren, T., Venkatachalam, T., Waddick, K. G., Rostostev, A., Myers, D. E. Cytotoxic activity of EGF-genstein against breast cancer cells. Clin. Cancer Res. 4:901–912, 1998; glioblastoma cell lines U87 and U373, Narla, R. K., Liu, X., Myers, D. E., and Uckun, F. M. 4-(3′-Bromo-4′hydroxylphenyl)-amino-6,7-dimethoxyquinazoline (WHI-P154): A novel quinazoline derivative with potent cytotoxic activity against human glioblastoma cells. Clin. Cancer Res. 4:1405–1414, 1998.
MTT (3-[4,5-dimethyl thiazol-2-yl]-2,5-diphenyltetrazolium bromide)-based colorimetric assays were used for evaluation of the cytotoxicity of vanadocene compounds. Mosmann, T. Rapid colorimetric assay for cellular growth and survival: application to proliferation and cytotoxicity assays. J. Immunol. Methods, 65: 55–63, 1983. Briefly, cells were harvested with 0.125% (w/v) trypsin-0.02% EDTA (GIBCO-BRL) from exponential-phase maintenance cultures and centrifuged (300 g×5 min). After suspension and counting, cells were dispensed within triplicate 96-well tissue culture plates in 100 μl volumes. After 24 h incubation, the culture medium was discarded and replaced with 100 μl of fresh medium containing serial two-fold dilutions of drugs in medium to yield 1.9 μM to 250 μM. All compounds were reconstituted in DMSO to a concentration of 100 mM, and the stock solution was made fresh for each experiment. Control wells consisted of medium containing 0.25% of DMSO alone were used for solvent control. Culture plates were then incubated for 24 h before adding 10 μl of MTT solution (5 mg/ml in PBS) to each well. Wells containing only medium and MTT were used as controls for each plate. The tetrazolium/formazan reaction was allowed to proceed for 4 h at 37° C., and then 100 μl of the solubilization buffer (10% sodium dodecyl sulfate in 0.1% HCl) were added to all wells and mixed thoroughly to dissolve the dark blue formazan crystals. […]

U373 glioblastoma cells [2] = assay: Cytotoxic activity of oxovanadium(IV) compounds, U373; details: read-out: Cytotoxic Activity U373
Protocol: (§1) The cytotoxicity of oxovanadium (W) complexes listed in Table 6 were tested against 9 different human cancer cell lines was performed using the MTT (3-[4,5-dimethylthiazol-2-yl]-2,5-diphenyl tetrazolium bromide) assay (Boehringer Mannheim Corp., Indianapolis, Ind.) as described previously (20). Briefly, exponentially growing tumor cells were seeded into a 96-well plate at a density of 4×10^4cells/well and incubated with medium containing the oxovanadium(IV) compounds concentrations ranging from 0.1 to 250 μM for 48 hours at 37° C. in a humidified 5% CO2 atmosphere. Triplicate wells were used for each treatment. To each well, 10 μl of MTT (0.5 mg/ml final concentration) was added and the plates were incubated at 37° C. for 4 hours to allow MTT to form formazan crystals by reacting with metabolically active cells . The formazan crystals were solubilized overnight at 37° C. in a solution containing 10% SDS in 0.01 M HCl. The absorbence of each well was measured in a microplate reader (Labsystems) at 540 nm and a reference wavelength of 690 nm. To translate the OD540 values into the number of live cells in each well, the OD540 values were compared to those on standard OD540—versus—cell number curves generated for each cell line. The percent survival was calculated using the formula: % survival=Live cell number[test]/Live cell number [control]×100. The IC50 values were calculated by non-linear regression analysis using an Graphpad Prism software version 2.0 (Graphpad Software, Inc., San Diego, Calif.).

[3] = system: U266BL multiple myeloma cells; assay: MTT cytotoxicity assay of oxovanadium(IV) compounds, U266BL; details: 48 hr
Protocol: as §1

[4] = system: NTD1 testicular cancer cells; assay: Cytotoxic activity of oxovanadium(IV) compounds, NTD1; details: read-out: Cytotoxic Activity NTD1
Protocol: as §1

[5] = system: HS-SULTAN multiple myeloma cells; assay: MTT cytotoxicity assay of oxovanadium(IV) compounds, HS-SULTAN; details: 48 hr
Protocol: as §1

| Molecule | IC50 (U373 glioblastoma cells [1]) | IC50 (U373 glioblastoma cells [2]) | IC50 [3] | IC50 [4] | IC50 [5] |
| --- | --- | --- | --- | --- | --- |
| [Cl-].[Cl-].[V+4].c1cc[cH-]c1.c1cc[cH-]c1 [VDC, VCp2Cl2] | 42000 nM | – | – | – | – |
| bis(4,7-dimethyl-1,10-phenanthroline)sulfatooxovanadium(IV) [Compound 29] | – | 1800 nM | 500 ± 20 nM | 10800 nM | 800 ± 50 nM |
